Counter-ions that a name gives are not always drawn. Like-named read-outs stand apart in the source and are kept apart here.
Experiments:
[1] = system: T. b. rhodesiense STIB-900 strain; assay: T. b. rhodesiense growth assay (resazurin, 3 days); assay type: cell-based, Trypanosoma brucei rhodesiense
Method in brief: (§1)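 Bloodstream parasites in HMI-9 with 10% FCS at 37 °C, 5% CO2, 1.5 × 10^4 (T. b. brucei) or 4 × 10^3 (T. b. rhodesiense) per well, exposed to 10 concentrations from 64 µM to 0.2 nM. After 3 days resazurin added, fluorescence read after 24 h or 6 h respectively; EC50 derived.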

[2] = Cytotoxicity assay, MRC-5SV2 cells, resazurin, 3 days; assay type: cell-based; conditions: human, MRC-5SV2 human lung fibroblast cells, MRC-5 cells, highest concentration 64 µM
Method in brief: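 MRC-5SV2 fibroblasts (1.5 × 10^5 cells/mL, MEM, 5% FCS) exposed 3 days at 37 °C, 5% CO2 to 64–0.25 µM (4-fold), DMSO <1%. Viability by resazurin (10 µg mL^−1, 4 h) fluorescence; EC50 interpolated from flanking points around 50% inhibition.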

[3] = target: Toll-like receptor 9 (TLR9); parameters: method as in PMID 27537371; conditions: readout of a cellular assay, cited from earlier work
[4] = system: T. b. brucei Squib 427 strain; assay: T. b. brucei growth assay (resazurin, 3 days); assay type: cell-based, Trypanosoma brucei brucei
Method in brief: as §1

[5] = system: Trypanosoma cruzi Tulahuen CL2 strain; assay: Intracellular T. cruzi assay in MRC-5 cells (β-galactosidase/CPRG, 7 days); assay type: cell-based; conditions: intracellular in MRC-5 cells
Method in brief: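 MRC-5SV2 fibroblasts infected with β-galactosidase-expressing T. cruzi Tulahuen CL2 and exposed to compounds (10 concentrations, 64 µM to 0.2 nM; DMSO <1%) for 7 days at 37 °C, 5% CO2. Parasite growth read by CPRG absorbance at 540 nm after 4 h versus untreated infected controls; EC50 calculated.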

[6] = system: L. infantum MHOM/MA(BE)/67 strain; assay: L. infantum intracellular amastigote assay in PMM (Giemsa, 5 days); assay type: cell-based, Leishmania infantum
Method in brief: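 Primary mouse peritoneal macrophages were infected with spleen-derived amastigotes (3 × 10^4 PMM + 4.5 × 10^5 parasites/well), and compound was added 2 h post-infection. Ten concentrations (64 µM to 0.2 nM; DMSO <1%) were incubated 5 days at 37 °C, 5% CO2. Giemsa-stained amastigotes per macrophage were counted microscopically to give EC50.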

[7] = system: primary mouse macrophages (PMMs); assay: Cytotoxicity against primary peritoneal mouse macrophages (PMM); assay type: cell-based; conditions: Macrophage
Procedure: The series of final products (13–69) was investigated in vitro on the human fetal lung fibroblast cell line MRC-5 (Table 1) to assess cytotoxicity toward normal (i.e., non-malignant) human cells. […] As explained earlier, these are important pathogens for humans or cattle (T. b. brucei) and a persistent need for new therapeutics exists for these parasites. As a part of the antiparasitic tests, cytotoxicity against primary mouse macrophages (PMMs) was also evaluated. These murine cells serve as host cells for parasites in the L. infantum assay. Therefore, the murine macrophage assay not only offers additional cytotoxicological insight but is also essential to interpreting the readout of the L. infantum assay.
The MRC-5SV2 human lung fibroblast cell line was cultured in MEM + Earle’s salts-medium, supplemented with 2 mM L-glutamine, 16.5 mM NaHCO3, and 5% inactivated fetal calf serum. For evaluating the antileishmanial activity, the L. infantum MHOM/MA(BE)/67 strain was used. This strain was maintained in a Golden hamster (Mesocricetus auratus). Amastigotes were collected from the spleen of an infected donor hamster using differential centrifugation. Primary peritoneal mouse macrophages were used as host cells and were collected 2 days after peritoneal stimulation with a 2% potato starch suspension. For the intracellular T. cruzi assays, the Tulahuen CL2 strain was used that expresses β-galactosidase. The strain was maintained in MRC-5SV2 cells in MEM medium. The T. b. brucei Squib 427 strain or T. b. rhodesiense STIB-900 strain was used for screening against the extracellular African trypanosomes. The strains were maintained in Hirumi’s Modified Iscove’s medium-9 (HMI-9), supplemented with 10% inactivated fetal calf serum. All cultures and assays were performed at 37 °C with 5% CO2.
Primary peritoneal mouse macrophages (PMMs) were prepared in RPMI-1640 medium, supplemented with 2 mM L-glutamine, 16.5 mM NaHCO3, and 5% inactivated fetal calf serum. The macrophages are infected after 48 h with spleen-derived L. infantum amastigotes (3 × 10^4 PMM + 4.5 × 10^5 parasites/well). The compounds were added after 2 h of infection. After 5 days incubation, parasite burdens (mean number of amastigotes/macrophage) were assessed microscopically after staining with a 10% Giemsa solution and EC50 values were calculated.

[8] = Trypanosoma cruzi, TULAHUEN, MRC5, 168 h
[9] = Leishmania infantum, 120 h, read-out: L. inf. (EC50, µM), amastigotes in PMM, 5 days

| Compound | EC50 ([1]; read-out: T. b. rhod. (EC50), 3 days) | EC50 ([1]; read-out: T. b. rhod. (EC50), 3 days, listed as 26/HIT 8) | EC50 at 3 days [2] | EC50 ([3]; read-out: EC50 for TLR9 antagonism) | EC50 ([4]; read-out: T. b. bruc. (EC50), 3 days) | EC50 ([4]; read-out: T. b. bruc. (EC50), 3 days, listed as 26/HIT 8) | EC50 [5, 8] | EC50 [5] | EC50 [6, 9] | EC50 ([6]; read-out: L. inf. (EC50), amastigotes in PMM, 5 days) | EC50 [7] | EC50 for TLR9 antagonism [3] | EC50 ([1]; Trypanosoma brucei, RHODESIENSE, 72 h, 3 days, read-out: T. b. rhod. (EC50)) | EC50 ([4]; Trypanosoma brucei, 72 h, 3 days, read-out: T. b. bruc. (EC50)) | EC50 ([6]; Leishmania infantum, 120 h, amastigotes in PMM, 5 days, read-out: L. inf. (EC50)) | EC50 ([6]; amastigotes in PMM, 5 days, read-out: L. inf. (EC50)) | EC50 ([1]; Trypanosoma brucei, RHODESIENSE, 72 h, read-out: T. b. rhod. (EC50, µM), 3 days) | EC50 ([4]; Trypanosoma brucei, 72 h, read-out: T. b. bruc. (EC50, µM), 3 days) |
| --- | --- | --- | --- | --- | --- | --- | --- | --- | --- | --- | --- | --- | --- | --- | --- | --- | --- | --- |
| c1ccc(-n2cc(CNCCN3CCCC3)c(-c3ccc4c(c3)OCCO4)n2)cc1 [Compound 26, N-((3-(2,3-dihydrobenzo[b][1,4]dioxin-6-yl)-1-phenyl-1H-pyrazol-4-yl)methyl)-2-(pyrrolidin-1-yl)ethan-1-amine dihydrochloride] | 1.75 µM | < 10 µM | 21.7 µM | 3.16 µM | 1.52 µM | < 10 µM | < 10 µM | 7.92 µM | < 10 µM | 8.3 µM | 32 µM | – | – | – | – | – | – | – |
| CN(C)CCCNCc1cn(-c2ccccc2)nc1-c1ccc2c(c1)OCCO2.Cl.Cl [Compound 29, N^1-((3-(2,3-dihydrobenzo[b][1,4]dioxin-6-yl)-1-phenyl-1H-pyrazol-4-yl)methyl)-N^3,N^3-dimethylpropane-1,3-diamine dihydrochloride] | – | – | 5.14 µM | – | – | – | – | – | – | – | – | grossly comparable potency | – | – | – | – | – | – |
| O=C(NCc1ccc(F)cc1)c1cn(-c2ccccc2)nc1-c1ccc2c(c1)OCCO2 [Compound 33, 3-(2,3-dihydrobenzo[b][1,4]dioxin-6-yl)-N-(4-fluorobenzyl)-1-phenyl-1H-pyrazole-4-carboxamide] | – | – | 64 µM | – | – | – | > 64 µM | – | – | – | > 64 µM | – | 4.23 µM | > 64 µM | 8.3 µM | 9.51 µM | – | – |
| c1ccc(-n2cc(CNCCc3ccncc3)c(-c3ccc4c(c3)OCCO4)n2)cc1 [Compound 19, N-((3-(2,3-dihydrobenzo[b][1,4]dioxin-6-yl)-1-phenyl-1H-pyrazol-4-yl)methyl)-2-(pyridin-4-yl)ethan-1-amine hydrochloride] | – | – | 20.2 µM | – | – | – | 7.46 µM | – | 20.3 µM | – | 32 µM | – | – | – | – | – | 1.72 µM | 6.27 µM |
